The record followed here is patent US20240101540A1, “TARGETED PROTEIN DEGRADATION OF PARP14 FOR USE IN THERAPY” (Ribon Therapeutics, Inc., priority 2022, published 2024).

The test has as its target T1, HiBiT tagged PARP14 (Homo sapiens, UniProt Q460N5).
T1 construct: engineered to contain a HiBiT tag on both alleles of the PARP14 gene; endogenous in cells; host or cells: Jurkat cells stably transfected with LgBiT (Promega), PARP14 locus edited by CRISPR/Cas9
In words: HiBiT assay for the degradation of PARP14 (HiBiT tagged PARP14 in LgBiT expressing Jurkat cells, 2 or 24 hours). Format: cell-based. The note with it: Assay B (Example B): HiBiT tagged PARP14 degradation in LgBiT expressing Jurkat cells, read-out: DC50. A digest of the protocol: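 Luminescence from HiBiT–LgBiT complementation served as proxy for endogenous PARP14 level in edited LgBiT Jurkat cells (5,000/well). After 2 or 24 h compound exposure at 37 °C, signal read with Live Cell Substrate, expressed as % of 0.1% DMSO control, and fitted (4-parameter, free Hill) for DC50.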
In general terms: The HiBiT peptide binds its large partner to form an active luciferase.

Counter-ions that a name gives are not always drawn.

T1 sequence (Q460N5 whole entry): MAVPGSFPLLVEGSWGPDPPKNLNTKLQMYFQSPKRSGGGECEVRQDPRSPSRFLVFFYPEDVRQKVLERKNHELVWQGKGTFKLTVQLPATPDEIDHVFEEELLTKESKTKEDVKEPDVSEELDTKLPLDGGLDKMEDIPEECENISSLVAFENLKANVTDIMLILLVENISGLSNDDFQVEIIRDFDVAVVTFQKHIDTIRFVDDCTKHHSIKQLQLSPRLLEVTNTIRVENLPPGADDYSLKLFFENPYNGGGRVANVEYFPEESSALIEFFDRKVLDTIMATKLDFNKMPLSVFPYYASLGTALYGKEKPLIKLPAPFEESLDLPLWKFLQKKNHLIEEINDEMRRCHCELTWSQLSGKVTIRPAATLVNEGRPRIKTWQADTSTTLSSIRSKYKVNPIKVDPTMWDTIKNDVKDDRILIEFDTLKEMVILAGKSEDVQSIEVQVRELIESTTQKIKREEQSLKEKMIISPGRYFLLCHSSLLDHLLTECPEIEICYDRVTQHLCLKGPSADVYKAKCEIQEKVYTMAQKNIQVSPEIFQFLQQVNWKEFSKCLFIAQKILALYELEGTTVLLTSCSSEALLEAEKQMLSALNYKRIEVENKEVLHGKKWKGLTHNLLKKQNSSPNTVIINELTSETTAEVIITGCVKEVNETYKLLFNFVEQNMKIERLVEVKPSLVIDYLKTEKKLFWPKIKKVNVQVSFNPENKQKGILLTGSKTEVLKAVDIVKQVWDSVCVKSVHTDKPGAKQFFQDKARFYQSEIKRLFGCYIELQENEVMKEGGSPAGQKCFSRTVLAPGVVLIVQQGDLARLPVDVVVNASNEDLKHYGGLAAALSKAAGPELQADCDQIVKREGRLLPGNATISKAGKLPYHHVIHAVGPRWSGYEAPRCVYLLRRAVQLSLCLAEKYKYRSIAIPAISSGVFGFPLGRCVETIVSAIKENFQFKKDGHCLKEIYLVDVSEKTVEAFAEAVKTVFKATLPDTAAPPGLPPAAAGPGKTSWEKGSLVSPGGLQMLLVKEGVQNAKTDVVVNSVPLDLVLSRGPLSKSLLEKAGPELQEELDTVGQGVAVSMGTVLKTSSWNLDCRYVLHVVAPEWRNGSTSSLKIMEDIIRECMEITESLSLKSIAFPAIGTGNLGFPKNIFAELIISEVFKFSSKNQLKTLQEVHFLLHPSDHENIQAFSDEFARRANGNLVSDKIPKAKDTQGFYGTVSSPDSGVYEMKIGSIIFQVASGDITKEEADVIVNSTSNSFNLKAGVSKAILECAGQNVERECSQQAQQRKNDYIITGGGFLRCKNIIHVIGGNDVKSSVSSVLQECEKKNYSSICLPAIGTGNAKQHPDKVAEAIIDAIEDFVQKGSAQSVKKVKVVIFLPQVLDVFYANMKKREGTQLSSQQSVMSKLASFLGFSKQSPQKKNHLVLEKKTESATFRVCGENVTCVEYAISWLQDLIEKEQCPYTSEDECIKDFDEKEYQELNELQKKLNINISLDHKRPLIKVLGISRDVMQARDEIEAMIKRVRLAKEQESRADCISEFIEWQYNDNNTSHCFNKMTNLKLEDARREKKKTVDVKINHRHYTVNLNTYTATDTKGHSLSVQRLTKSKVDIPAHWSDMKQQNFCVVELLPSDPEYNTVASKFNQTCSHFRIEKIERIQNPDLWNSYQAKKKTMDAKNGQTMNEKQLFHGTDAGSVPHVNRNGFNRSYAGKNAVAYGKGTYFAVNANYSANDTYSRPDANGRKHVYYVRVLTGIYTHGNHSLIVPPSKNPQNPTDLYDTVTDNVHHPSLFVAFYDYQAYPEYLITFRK

One may read the DC50 as the concentration at which degradation of the target reaches its halfway point. Turning to `O=C1CCN(c2cnc3cc(N4CCC(N5CC(N6CCC(COc7cc(F)c8c(=O)[nH]c(CSC9CCOCC9)nc8c7)CC6)C5)CC4)ccn23)C(=O)N1` [Example 167, 1-(7-(4-(3-(4-(((5-fluoro-4-oxo-2-(((tetrahydro-2H-pyran-4-yl)thio)methyl)-3,4-dihydroquinazolin-7-yl)oxy)methyl)piperidin-1-yl)azetidin-1-yl)piperidin-1-yl)imidazo[1,2-a]pyridin-3-yl)dihydropyrimidine-2,4(1H,3H)-dione], the DC50 is < 30 nM.

`O=C1CCN(c2cnc3cc(N4CCC(N5CC(N6CCC(COc7cc(F)c8c(=O)[nH]c(COC9CCOCC9)nc8c7)CC6)C5)CC4)ccn23)C(=O)N1` [Example 168, 1-(7-(4-(3-(4-(((5-fluoro-4-oxo-2-(((tetrahydro-2H-pyran-4-yl)oxy)methyl)-3,4-dihydroquinazolin-7-yl)oxy)methyl)piperidin-1-yl)azetidin-1-yl)piperidin-1-yl)imidazo[1,2-a]pyridin-3-yl)dihydropyrimidine-2,4(1H,3H)-dione]: the DC50 is < 30 nM.

For `O=C1CCC(N2C(=O)c3cccc4c(N5CCC(N6CC(N7CCC(COc8cc(F)c9c(=O)[nH]c(CSC%10CCOCC%10)nc9c8)CC7)C6)CC5)ccc2c34)C(=O)N1` (stereo not shown) [Example 169, 3-(6-(4-(3-(4-(((5-fluoro-4-oxo-2-(((tetrahydro-2H-pyran-4-yl)thio)methyl)-3,4-dihydroquinazolin-7-yl)oxy)methyl)piperidin-1-yl)azetidin-1-yl)piperidin-1-yl)-2-oxobenzo[cd]indol-1(2H)-yl)piperidine-2,6-dione], the DC50 is < 30 nM.

Consider `O=C1CCC(Nc2ccc(N3CCC(O)(CC(=O)N4CCC(COc5cc(F)c6c(=O)[nH]c(CSC7CCOCC7)nc6c5)CC4)CC3)cc2F)C(=O)N1` (stereo not shown) [Example 170, 3-((2-fluoro-4-(4-(2-(4-(((5-fluoro-4-oxo-2-(((tetrahydro-2H-pyran-4-yl)thio)methyl)-3,4-dihydroquinazolin-7-yl)oxy)methyl)piperidin-1-yl)-2-oxoethyl)-4-hydroxypiperidin-1-yl)phenyl)amino)piperidine-2,6-dione], for which the DC50 is < 30 nM.

`O=C1CCC(Nc2ccc(N3CCC(N4CC(C(=O)N5CCC(COc6cc(F)c7c(=O)[nH]c(CSC8CCOCC8)nc7c6)CC5)C4)CC3)c(F)c2)C(=O)N1` (stereo not shown) [Example 171, 3-((3-fluoro-4-(4-(3-(4-(((5-fluoro-4-oxo-2-(((tetrahydro-2H-pyran-4-yl)thio)methyl)-3,4-dihydroquinazolin-7-yl)oxy)methyl)piperidine-1-carbonyl)azetidin-1-yl)piperidin-1-yl)phenyl)amino)piperidine-2,6-dione]: the DC50 was < 30 nM.

Regarding `O=C1CCC(Nc2ccc(N3CCC(C(=O)N4CCC(N5CCC(COc6cc(F)c7c(=O)[nH]c(COC8CCOCC8)nc7c6)CC5)CC4)CC3)c(F)c2)C(=O)N1` (stereo not shown) [Example 172, 3-((3-fluoro-4-(4-(4-(((5-fluoro-4-oxo-2-(((tetrahydro-2H-pyran-4-yl)oxy)methyl)-3,4-dihydroquinazolin-7-yl)oxy)methyl)-[1,4′-bipiperidine]-1′-carbonyl)piperidin-1-yl)phenyl)amino)piperidine-2,6-dione], the DC50 was < 30 nM.

For the compound `O=C1CCC(Nc2ccc(N3CCC(C(=O)N4CCC(N5CCC(COc6cc(F)c7c(=O)[nH]c(CSC8CCOCC8)nc7c6)CC5)CC4)CC3)c(F)c2)C(=O)N1` (stereo not shown) [Example 173, 3-((3-fluoro-4-(4-(4-(((5-fluoro-4-oxo-2-(((tetrahydro-2H-pyran-4-yl)thio)methyl)-3,4-dihydroquinazolin-7-yl)oxy)methyl)-[1,4′-bipiperidine]-1′-carbonyl)piperidin-1-yl)phenyl)amino)piperidine-2,6-dione formate], the DC50 is < 30 nM.

Turning to `O=C1CCC(Nc2ccc(N3CCN(CC(=O)N4CCC(COc5cc(F)c6c(=O)[nH]c(CSC7CCOCC7)nc6c5)CC4)CC3)c(F)c2)C(=O)N1` (stereo not shown) [Example 174, 3-((3-fluoro-4-(4-(2-(4-(((5-fluoro-4-oxo-2-(((tetrahydro-2H-pyran-4-yl)thio)methyl)-3,4-dihydroquinazolin-7-yl)oxy)methyl)piperidin-1-yl)-2-oxoethyl)piperazin-1-yl)phenyl)amino)piperidine-2,6-dione], the DC50 is < 30 nM.

For `O=C1CCC(Nc2ccc(N3CCC(C(=O)N4CCC(N5CCC(COc6cc(F)c7c(=O)[nH]c(CCC8CCOCC8)nc7c6)CC5)CC4)CC3)c(F)c2)C(=O)N1` (stereo not shown) [Example 175, 3-((3-fluoro-4-(4-(4-(((5-fluoro-4-oxo-2-(2-(tetrahydro-2H-pyran-4-yl)ethyl)-3,4-dihydroquinazolin-7-yl)oxy)methyl)-[1,4′-bipiperidine]-1′-carbonyl)piperidin-1-yl)phenyl)amino)piperidine-2,6-dione], the 50% degradation concentration (DC50) is < 30 nM.

For the compound `O=C1CCC(Nc2ccc(N3CCC(C(=O)N4CCC(N5CCC(COc6cc(F)c7c(=O)[nH]c(CSC8CCOCC8)nc7c6)CC5)C4)CC3)c(F)c2)C(=O)N1` (stereo not shown) [Example 176, 3-((3-fluoro-4-(4-(3-(4-(((5-fluoro-4-oxo-2-(((tetrahydro-2H-pyran-4-yl)thio)methyl)-3,4-dihydroquinazolin-7-yl)oxy)methyl)piperidin-1-yl)pyrrolidine-1-carbonyl)piperidin-1-yl)phenyl)amino)piperidine-2,6-dione], the DC50 was < 30 nM.

With `O=C1CCC(Nc2ccc(N3CCC(C(=O)N4CC(N5CCC(COc6cc(F)c7c(=O)[nH]c(COC8CCOCC8)nc7c6)CC5)C4)CC3)c(F)c2)C(=O)N1` (stereo not shown) [Example 177, 3-((3-fluoro-4-(4-(3-(4-(((5-fluoro-4-oxo-2-(((tetrahydro-2H-pyran-4-yl)oxy)methyl)-3,4-dihydroquinazolin-7-yl)oxy)methyl)piperidin-1-yl)azetidine-1-carbonyl)piperidin-1-yl)phenyl)amino)piperidine-2,6-dione], the DC50 was < 30 nM.

Take `O=C1CCC(Nc2ccc(N3CCC(C(=O)N4CC(N5CCC(COc6cc(F)c7c(=O)[nH]c(CC8CC8)nc7c6)CC5)C4)CC3)c(F)c2)C(=O)N1` (stereo not shown) [Example 178, 3-((4-(4-(3-(4-(((2-(cyclopropylmethyl)-5-fluoro-4-oxo-3,4-dihydroquinazolin-7-yl)oxy)methyl)piperidin-1-yl)azetidine-1-carbonyl)piperidin-1-yl)-3-fluorophenyl)amino)piperidine-2,6-dione]: the half-maximal degradation concentration (DC50) was < 30 nM.

As for `O=C1CCC(Nc2ccc(N3CCC(N4CC(CC(=O)N5CCC(COc6cc(F)c7c(=O)[nH]c(CSC8CCOCC8)nc7c6)CC5)C4)CC3)c(F)c2)C(=O)N1` (stereo not shown) [Example 179, 3-((3-fluoro-4-(4-(3-(2-(4-(((5-fluoro-4-oxo-2-(((tetrahydro-2H-pyran-4-yl)thio)methyl)-3,4-dihydroquinazolin-7-yl)oxy)methyl)piperidin-1-yl)-2-oxoethyl)azetidin-1-yl)piperidin-1-yl)phenyl)amino)piperidine-2,6-dione], the DC50 was < 30 nM.

Turning to `O=C1CCN(c2ccc(N3CCC(CN4CCC(COc5cc(F)c6c(=O)[nH]c(COC7CCOCC7)nc6c5)CC4)CC3)c(F)c2)C(=O)N1` [Example 180, 1-(3-fluoro-4-(4-((4-(((5-fluoro-4-oxo-2-(((tetrahydro-2H-pyran-4-yl)oxy)methyl)-3,4-dihydroquinazolin-7-yl)oxy)methyl)piperidin-1-yl)methyl)piperidin-1-yl)phenyl)dihydropyrimidine-2,4(1H,3H)-dione], the DC50 is < 30 nM.

Turning to `Cn1nc(N2CCC(=O)NC2=O)c2ccc(N3CCC(CN4CCC(COc5cc(F)c6c(=O)[nH]c(CSC7CCOCC7)nc6c5)CC4)CC3)cc21` [Example 181, 1-(6-(4-((4-(((5-fluoro-4-oxo-2-(((tetrahydro-2H-pyran-4-yl)thio)methyl)-3,4-dihydroquinazolin-7-yl)oxy)methyl)piperidin-1-yl)methyl)piperidin-1-yl)-1-methyl-1H-indazol-3-yl)dihydropyrimidine-2,4(1H,3H)-dione], the DC50 was < 30 nM.

As to `Cn1nc(N2CCC(=O)NC2=O)c2cc(F)c(N3CCC(CN4CCC(COc5cc(F)c6c(=O)[nH]c(CSC7CCOCC7)nc6c5)CC4)CC3)cc21` [Example 182, 1-(5-fluoro-6-(4-((4-(((5-fluoro-4-oxo-2-(((tetrahydro-2H-pyran-4-yl)thio)methyl)-3,4-dihydroquinazolin-7-yl)oxy)methyl)piperidin-1-yl)methyl)piperidin-1-yl)-1-methyl-1H-indazol-3-yl)dihydropyrimidine-2,4(1H,3H)-dione], the half-maximal degradation concentration (DC50) is < 30 nM.

Regarding `Cn1nc(N2CCC(=O)NC2=O)c2cc(F)c(N3CCC(CN4CCC(COc5cc(F)c6c(=O)[nH]c(COC7CCOCC7)nc6c5)CC4)CC3)cc21` [Example 183, 1-(5-fluoro-6-(4-((4-(((5-fluoro-4-oxo-2-(((tetrahydro-2H-pyran-4-yl)oxy)methyl)-3,4-dihydroquinazolin-7-yl)oxy)methyl)piperidin-1-yl)methyl)piperidin-1-yl)-1-methyl-1H-indazol-3-yl)dihydropyrimidine-2,4(1H,3H)-dione], the DC50 was < 30 nM.

Regarding `Cn1nc(N2CCC(=O)NC2=O)c2ccc(N3CCC(COc4cc(F)c5c(=O)[nH]c(COC6CCOCC6)nc5c4)CC3)cc21` [Example 184, 1-(6-(4-(((5-fluoro-4-oxo-2-(((tetrahydro-2H-pyran-4-yl)oxy)methyl)-3,4-dihydroquinazolin-7-yl)oxy)methyl)piperidin-1-yl)-1-methyl-1H-indazol-3-yl)dihydropyrimidine-2,4(1H,3H)-dione], the DC50 was < 30 nM.

As to `Cn1nc(N2CCC(=O)NC2=O)c2cc(F)c(N3CC(N4CCC(COc5cc(F)c6c(=O)[nH]c(CSC7CCOCC7)nc6c5)CC4)C3)cc21` [Example 185, 1-(5-fluoro-6-(3-(4-(((5-fluoro-4-oxo-2-(((tetrahydro-2H-pyran-4-yl)thio)methyl)-3,4-dihydroquinazolin-7-yl)oxy)methyl)piperidin-1-yl)azetidin-1-yl)-1-methyl-1H-indazol-3-yl)dihydropyrimidine-2,4(1H,3H)-dione], the DC50 was < 30 nM.
